Source: ChEMBL document CHEMBL3259629, “Discovery and optimization of piperidyl-1,2,3-triazole ureas as potent, selective, and in vivo-active inhibitors of α/β-hydrolase domain containing 6 (ABHD6)” (J Med Chem, 2013)

Legend:
Settings in all cases: Neuro2a, 3 nM
[1] = target: T1, Platelet-activating factor acetylhydrolase IB subunit alpha2 (Mus musculus) (UniProt Q61206)
T1 sequence (whole entry): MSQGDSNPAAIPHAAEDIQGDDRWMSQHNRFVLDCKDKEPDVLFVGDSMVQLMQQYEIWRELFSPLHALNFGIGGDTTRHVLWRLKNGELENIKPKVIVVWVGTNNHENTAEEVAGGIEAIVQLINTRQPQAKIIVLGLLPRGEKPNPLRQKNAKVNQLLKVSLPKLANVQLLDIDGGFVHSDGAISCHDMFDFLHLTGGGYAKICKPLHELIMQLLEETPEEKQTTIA
Description: Inhibition of Pafah1b2 in mouse Neuro2a cells at 3 nM after 4 hrs by ABPP-SILAC assay

[2] = target: T2, Acetylcholinesterase (Mus musculus) (UniProt P21836)
T2 sequence (whole entry): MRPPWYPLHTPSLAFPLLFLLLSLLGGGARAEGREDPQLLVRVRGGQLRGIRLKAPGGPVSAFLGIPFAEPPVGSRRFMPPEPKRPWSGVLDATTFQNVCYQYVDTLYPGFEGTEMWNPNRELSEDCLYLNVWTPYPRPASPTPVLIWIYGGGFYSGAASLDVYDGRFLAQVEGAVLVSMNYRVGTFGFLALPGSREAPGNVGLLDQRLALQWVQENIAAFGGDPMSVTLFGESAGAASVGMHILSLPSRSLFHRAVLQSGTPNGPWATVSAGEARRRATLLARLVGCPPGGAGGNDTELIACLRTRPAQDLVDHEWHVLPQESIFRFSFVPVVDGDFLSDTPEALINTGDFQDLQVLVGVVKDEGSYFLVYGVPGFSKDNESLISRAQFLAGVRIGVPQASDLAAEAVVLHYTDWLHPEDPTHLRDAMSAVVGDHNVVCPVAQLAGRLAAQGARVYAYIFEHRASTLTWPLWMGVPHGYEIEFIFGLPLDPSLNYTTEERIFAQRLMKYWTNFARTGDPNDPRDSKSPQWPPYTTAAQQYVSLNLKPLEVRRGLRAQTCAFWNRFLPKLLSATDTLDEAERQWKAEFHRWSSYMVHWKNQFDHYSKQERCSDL
Description: Inhibition of Ache in mouse Neuro2a cells at 3 nM after 4 hrs by ABPP-SILAC assay

[3] = target: T3, Patatin-like phospholipase domain-containing protein 6 (Mus musculus) (UniProt Q3TRM4)
T3 sequence (whole entry): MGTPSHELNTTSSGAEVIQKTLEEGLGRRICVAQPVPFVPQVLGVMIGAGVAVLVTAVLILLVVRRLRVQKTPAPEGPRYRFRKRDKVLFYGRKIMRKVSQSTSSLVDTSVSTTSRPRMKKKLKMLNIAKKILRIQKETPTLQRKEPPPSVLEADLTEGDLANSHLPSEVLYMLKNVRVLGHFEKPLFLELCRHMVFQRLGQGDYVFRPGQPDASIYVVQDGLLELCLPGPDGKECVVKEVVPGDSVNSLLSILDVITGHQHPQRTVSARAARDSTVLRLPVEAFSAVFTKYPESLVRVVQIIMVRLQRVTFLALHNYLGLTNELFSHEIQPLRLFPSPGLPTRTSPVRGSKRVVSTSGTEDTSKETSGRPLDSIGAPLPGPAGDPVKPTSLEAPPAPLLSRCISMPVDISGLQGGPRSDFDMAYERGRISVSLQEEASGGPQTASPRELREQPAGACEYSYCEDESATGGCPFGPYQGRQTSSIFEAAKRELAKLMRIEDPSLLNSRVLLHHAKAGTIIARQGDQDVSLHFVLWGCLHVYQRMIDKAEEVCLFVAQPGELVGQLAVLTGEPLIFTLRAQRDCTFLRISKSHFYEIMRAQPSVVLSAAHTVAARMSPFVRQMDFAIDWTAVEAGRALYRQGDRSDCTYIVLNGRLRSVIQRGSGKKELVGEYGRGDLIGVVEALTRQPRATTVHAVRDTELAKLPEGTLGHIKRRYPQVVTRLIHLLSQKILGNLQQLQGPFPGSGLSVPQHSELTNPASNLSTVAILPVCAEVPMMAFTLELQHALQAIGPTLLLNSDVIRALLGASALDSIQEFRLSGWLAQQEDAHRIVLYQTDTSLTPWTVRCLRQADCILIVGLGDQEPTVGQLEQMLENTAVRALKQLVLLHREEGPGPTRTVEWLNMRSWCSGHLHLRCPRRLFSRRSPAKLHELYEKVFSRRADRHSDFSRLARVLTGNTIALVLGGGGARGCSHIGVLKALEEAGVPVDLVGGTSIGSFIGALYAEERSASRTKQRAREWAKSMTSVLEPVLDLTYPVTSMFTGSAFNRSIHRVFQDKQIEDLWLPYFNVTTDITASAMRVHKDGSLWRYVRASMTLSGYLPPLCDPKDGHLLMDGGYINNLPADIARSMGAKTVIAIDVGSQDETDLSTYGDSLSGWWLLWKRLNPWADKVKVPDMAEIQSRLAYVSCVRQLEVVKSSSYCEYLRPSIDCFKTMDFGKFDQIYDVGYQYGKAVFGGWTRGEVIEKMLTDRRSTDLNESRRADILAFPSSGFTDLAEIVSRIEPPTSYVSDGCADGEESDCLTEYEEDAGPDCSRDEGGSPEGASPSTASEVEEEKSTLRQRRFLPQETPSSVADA
Description: Inhibition of Pnpla6 in mouse Neuro2a cells at 3 nM after 4 hrs by ABPP-SILAC assay

[4] = target: T4, Diacylglycerol lipase-beta (Mus musculus) (UniProt Q91WC9)
T4 sequence (whole entry): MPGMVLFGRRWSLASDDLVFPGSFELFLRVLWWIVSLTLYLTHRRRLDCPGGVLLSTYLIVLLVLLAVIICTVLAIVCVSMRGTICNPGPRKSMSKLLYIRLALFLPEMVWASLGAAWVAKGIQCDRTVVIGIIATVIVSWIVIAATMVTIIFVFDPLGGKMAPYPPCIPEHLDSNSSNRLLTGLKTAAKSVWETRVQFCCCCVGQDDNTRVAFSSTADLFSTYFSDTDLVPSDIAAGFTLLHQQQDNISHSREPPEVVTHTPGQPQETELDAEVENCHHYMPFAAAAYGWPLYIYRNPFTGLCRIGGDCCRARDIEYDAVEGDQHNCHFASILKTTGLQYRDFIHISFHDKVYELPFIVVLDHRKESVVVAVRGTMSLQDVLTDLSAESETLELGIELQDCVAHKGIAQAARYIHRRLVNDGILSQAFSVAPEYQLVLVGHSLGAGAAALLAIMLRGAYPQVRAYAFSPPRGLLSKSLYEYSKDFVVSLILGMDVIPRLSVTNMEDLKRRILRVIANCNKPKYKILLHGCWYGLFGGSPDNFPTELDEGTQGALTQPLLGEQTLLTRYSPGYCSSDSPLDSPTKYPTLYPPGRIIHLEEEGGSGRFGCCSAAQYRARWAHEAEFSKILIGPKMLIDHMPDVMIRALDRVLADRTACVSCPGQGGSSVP
Description: Inhibition of Daglb in mouse Neuro2a cells at 3 nM after 4 hrs by ABPP-SILAC assay

Measured: inhibition

O=C(O)c1cccc(-c2ccc(-c3cn(C(=O)N4CCCCC4Cc4ccccc4)nn3)cc2)c1 (racemic)
< 50%: [1] | [2] | [3] | [4]

O=C(N1CCCCC1c1ccccc1)n1cc(-c2ccc(-c3cccc(CO)c3)cc2)nn1 (racemic)
< 50%: [1] | [2] | [3] | [4]

O=C(c1cccc(-c2ccc(-c3cn(C(=O)N4CCCCC4c4ccccc4)nn3)cc2)c1)N1CCCCC1 (racemic)
< 50%: [1] | [2] | [3] | [4]
